What was measured:
Test in all cases: organism not typed
MACV-p = type: cell-based, Machupo (MACV); conditions: Vero, 24 h, read-out: MACV-p EC50 (nM)
LASV-p = type: cell-based, Lassa (LASV); conditions: Vero, 24 h, read-out: LASV-p EC50 (nM)
TCRV-p = type: cell-based; conditions: Vero, 24 h, read-out: TCRV-p EC50 (nM)
JUNV-p = type: cell-based, Junin (JUNV); conditions: Vero, 24 h, read-out: JUNV-p EC50 (nM)

| SMILES | EC50 (MACV-p) [nM] | EC50 (LASV-p) [nM] | EC50 (TCRV-p) [nM] | EC50 (JUNV-p) [nM] |
| --- | --- | --- | --- | --- |
| CC(C)Oc1ccc(-n2cnc3cnc(-c4ccc(C(C)(C)O)cc4)cc32)cc1 [Example B5, 2-(4-{1-[4-(propan-2-yloxy)phenyl]-1H-imidazo[4,5-c]pyridin-6-yl}phenyl)propan-2-ol] | > 25 | > 25 | > 25 | 13.4 |
| CC(C)Oc1ccc(-c2ccc3cnn(-c4ccc(OC(C)C)cc4)c3c2)cc1 [Example D1, 1,6-bis[4-(propan-2-yloxy)phenyl]-1H-indazole] | > 25 | > 25 | > 25 | 14 |
| CC(C)Oc1ccc(-c2cnc3ccc(-c4ccc(OCCN5CCOCC5)cc4)cn23)cc1 [Example C25, 4-[2-(4-{3-[4-(propan-2-yloxy)phenyl]imidazo[1,2-a]pyridin-6-yl}phenoxy)ethyl]morpholine] | > 25 | > 25 | > 25 | ≥ 25 |
| c1cc2cc(-c3ccc4ncn(-c5ccc6[nH]ccc6c5)c4c3)ccc2[nH]1 [Example A29, 1,6-bis(1H-indol-5-yl)-1H-1,3-benzodiazole] | 11.1 | 0.53 | 15.2 | 6.96 |
| CC(C)Oc1ccc(-c2ccc3ncc(-c4ccc(C(F)F)cc4)n3c2)cc1 [Example C36, 3-[4-(difluoromethyl)phenyl]-6-[4-(propan-2-yloxy)phenyl]imidazo[1,2-a]pyridine] | > 25 | 8.18 | > 25 | 23.2 |
| COc1ccc(-n2cnc3ccc(Cc4ccc(C)cc4)cc32)cc1 [Example A9, 1-(4-methoxyphenyl)-6-[(4-methylphenyl)methyl]-1H-1,3-benzodiazole] | – | > 100 | – | – |
| CC(C)Oc1ccc(-c2cnc3ccc(-c4ccc(C(N)=O)cc4)cn23)cc1 [Example C16, 4-{3-[4-(propan-2-yloxy)phenyl]imidazo[1,2-a]pyridin-6-yl}benzamide] | > 25 | > 25 | > 25 | > 25 |
| CC(C)Oc1ccc(-c2cnc3ccc(-c4ccc(N)nc4)cn23)cc1 [Example C14, 5-{3-[4-(propan-2-yloxy)phenyl]imidazo[1,2-a]pyridin-6-yl}pyridin-2-amine] | > 25 | > 25 | > 25 | > 25 |
| COc1ccccc1-n1cnc2ccc(-c3ccc(C(C)(C)O)cc3)cc21 [Example A22, 2-{4-[1-(2-methoxyphenyl)-1H-1,3-benzodiazol-6-yl]phenyl}propan-2-ol] | > 25 | > 25 | > 25 | > 25 |
| COc1ccc(-n2cnc3c(-c4cccc(C(C)C)c4)cccc32)cc1 [Example A20, 1-(4-methoxyphenyl)-4-[3-(propan-2-yl)phenyl]-1H-1,3-benzodiazole] | – | > 100 | – | – |
| CC(C)Oc1ccc(-c2cnc3ccc(-c4ccc(OC(C)C)cc4F)cn23)cc1 [Example C23, 6-[2-fluoro-4-(propan-2-yloxy)phenyl]-3-[4-(propan-2-yloxy)phenyl]imidazo[1,2-a]pyridine] | > 25 | > 25 | > 25 | > 25 |
| CC(C)Oc1ccc(-c2cnc3ccc(-c4ccc(C5(O)CNC5)cc4)cn23)cc1 [Example C29, 3-(4-{3-[4-(propan-2-yloxy)phenyl]imidazo[1,2-a]pyridin-6-yl}phenyl)azetidin-3-ol] | > 25 | > 25 | > 25 | > 25 |
| CC(C)Oc1ccc(-c2ccc3ncc(-c4ccc(C(=O)O)cc4)n3c2)cc1 [Example C45, 4-{6-[4-(propan-2-yloxy)phenyl]imidazo[1,2-a]pyridin-3-yl}benzoic acid] | > 25 | > 25 | > 25 | > 25 |
| CC(C)Oc1ccc(-c2ccc3nc(C(=O)O)c(-c4ccc(OC(C)C)cc4)n3c2)cc1 [Example D21, 3,6-bis[4-(propan-2-yloxy)phenyl]imidazo[1,2-a]pyridine-2-carboxylic acid] | > 25 | > 25 | > 25 | > 25 |
| CCOC(=O)c1nc2ccc(-c3ccc(OC(C)C)cc3)cn2c1-c1ccc(OC(C)C)cc1 [Example D20, ethyl 3,6-bis[4-(propan-2-yloxy)phenyl]imidazo[1,2-a]pyridine-2-carboxylate] | > 25 | > 25 | > 25 | > 25 |
| CC(C)Oc1ccc(-c2ccc3ncc(-c4ccc5c(c4)CCO5)n3c2)cc1 [Example C34, 3-(2,3-dihydro-1-benzofuran-5-yl)-6-[4-(propan-2-yloxy)phenyl]imidazo[1,2-a]pyridine] | 25.1 | 4.73 | 16.5 | 3.68 |
| CC(C)Oc1ccc(-c2ccc3occ(-c4ccc(OC(C)C)cc4)c3c2)cc1 [Example D8, 3,5-bis[4-(propan-2-yloxy)phenyl]-1-benzofuran] | > 25 | > 25 | > 25 | > 25 |
| COc1cccc(-n2cnc3ccc(-c4ccc(C(C)(C)O)cc4)cc32)c1 [Example A23, 2-{4-[1-(3-methoxyphenyl)-1H-1,3-benzodiazol-6-yl]phenyl}propan-2-ol] | > 25 | > 25 | > 25 | > 25 |
| CC(C)Oc1ccc(-c2ccc3cnc(-c4ccc(OC(C)C)cc4)n3c2)cc1 [Example D17, 3,6-bis[4-(propan-2-yloxy)phenyl]imidazo[1,5-a]pyridine] | > 25 | > 25 | > 25 | > 25 |
| COc1ccc(-n2cnc3c(-c4ccc(C(C)C)cc4)cccc32)cc1 [Example A19, 1-(4-methoxyphenyl)-4-[4-(propan-2-yl)phenyl]-1H-1,3-benzodiazole] | – | > 100 | – | – |
| CC(C)Oc1ccc(-c2ccc3ccn(-c4ccc(OC(C)C)cc4)c3c2)cc1 [Example D4, 1,6-bis[4-(propan-2-yloxy)phenyl]-1H-indole] | 16.9 | > 25 | > 25 | 8.1 |
| CC(C)Oc1ccc(-c2coc3ccc(-c4ccc5[nH]ccc5c4)cc23)cc1 [Example D9, 5-{3-[4-(propan-2-yloxy)phenyl]-1-benzofuran-5-yl}-1H-indole] | > 25 | > 25 | > 25 | > 25 |
| CC(C)Oc1ccc(-c2ccc3ncc(-c4ccc(OCCN5CCOCC5)cc4)n3c2)cc1 [Example C43, 4-[2-(4-{6-[4-(propan-2-yloxy)phenyl]imidazo[1,2-a]pyridin-3-yl}phenoxy)ethyl]morpholine] | > 25 | > 25 | > 25 | > 25 |
| CC(=O)c1ccc(-c2ccc3ncn(-c4ccc5[nH]ccc5c4)c3c2)cc1 [Example A28, 1-{4-[1-(1H-indol-5-yl)-1H-1,3-benzodiazol-6-yl]phenyl}ethan-1-one] | > 25 | 11 | > 25 | 7.29 |
| COc1ccc(-n2cnc3ccc(-c4ccc(S(C)(=O)=O)cc4)cc32)cc1 [Example A11, 6-(4-methanesulfonylphenyl)-1-(4-methoxyphenyl)-1H-1,3-benzodiazole] | > 25 | > 25 | > 25 | > 25 |

Reference: patent US20220281825A1 (priority 2016, published 2022)
